From patent EP4556005A1, “COMPOUND FOR TREATING FLAVIVIRUS INFECTIONS” (Leibniz-Institut für Virologie, priority 2023, dated 2025) come the findings set out here.

Each structure is given as a SMILES string.

Data set [1] can be described thus: Cytotoxicity, cell viability by Resazurin assay. Type of data set: cell-based. Conditions: human, JEG-3 human placental cells; naive JEG-3 cells, 24-well plates (8×10^4 cells/well), increasing amounts of inhibitor, viability read forty-height (48) hours later; Figure 3A; read-out: 50% cytotoxicity concentration (CC50). The procedure: In a first experiment, the cytotoxicity of the UBA5 inhibitor DKM29-3 was determined. Naive JEG-3 human placental cells were seeded in 24-well plates (8×10^4 cells/well) and on the next day treated with increasing amounts of the UBA5 inhibitor DKM29-3.

In the next data set the test system is ZIKV (PRVABC59 strain). Briefly: Zika virus replication in infected JEG-3 cells, plaque-forming unit assay (PFU) on VeroE6 cells. The data set is classed as cell-based. The conditions noted are these: wild-type JEG-3 cells, MOI 0.01, 16 µM or 32 µM added after virus absorption, supernatants analysed forty-height (48) hours later; n=4; Mann-Whitney test p-value < 0.05. How it is done: Then, the effect of UBA5-inhibitor DKM29-3 on Zika virus replication was studied. Wild-type JEG-3 cells were seeded as described above and infected with ZIKV (PRVABC59 strain) at an MOI (Multiplicity of Infection) of 0.01 for 1h at 37°C. After virus absorption the cells monolayers were washed with PBS (Phosphate Buffer Saline), and cell culture media containing 16 µM or 32 µM of DKM29-3 were added to the cells. Forty-height hours later virus-containing supernatants were analyzed by plaque-forming unit assay (PFU) on VeroE6 cells (n=4; Mann-Whitney test p-value < 0.05).

Take `COc1ccc(CNC(=O)CCl)cc1OC` [DKM29-3, 2-chloro-N-(3,4-dimethoxybenzyl)acetamide]: in data set [1], the CC50 at 48 h amounted to 80.2 µM. In addition, in the data set on ZIKV (PRVABC59 strain), the Zika virus replication entry is “significantly reduced”.
